The source of these data is patent publication US12344599B2, “Prodigiosin analogs and methods of use” (Institute For Cancer Research, priority 2016, dated 2025).

For one experiment, the system named is c-Myc and PUMA. The experiment can be described thus: Western blot of c-Myc, PUMA and p53 target genes. The experiment is classed as cell-based, human. The conditions noted are these: colorectal cancer cell lines and Jurkat cells. The method, then: After treatment, protein lysates were collected for Western blot analysis. A total of […] of protein was used for SDS-PAGE. After primary and secondary antibody incubations, the signal was detected by a chemiluminescence detection kit, imaged by Syngene (Imgen Technologies). Antibodies for PUMA (for IHC), p53 (Santa Cruz Biotechnology), caspase 8, cleaved caspase 8, caspase 9, caspase 3, cleavage PARP, eIF2α, p-eIF2α (Ser51), CHOP, ATF4, DR5, FOXO3a, p-FOXO3a (Ser253), NF-κB p65, p-NF-κB p65 (Ser536), c-Jun, p-c-Jun (Ser63), JNK, p-JNK (Thr183/Tyr185), PUMA (for WB), c-Myc, phosphor-S62-cMyc (Cell Signaling Technology), Noxa, p21 (Calbiochem), p73 (Bethyl laboratories Inc), Ran (BD Biosciences), […] (Sigma).
To test this hypothesis, two ERK1/2 inhibitors that act by different mechanisms were used. U0126 is an indirect ERK1/2 inhibitor. It inhibits MEK1 kinase and blocks the phosphorylation of ERK1/2. […] Consistent with a previous publication (Choi et al., Genes Dev, 2010, 24, 1236-1241), SCH772984 can inhibit ERK1/2 function after ERK1/2 is phosphorylated (FIG. 73), and the same is observed for PG3-Oc (FIG. 73).

The test system of the next experiment is U251. Put plainly: CellTiterGlo cell viability assay, U251. It is filed as cell-based. The conditions noted are these: Homo sapiens, U-251; U251, glioblastoma multiforme, p53 R273H, 72 hours. Here is the method:
(§1) • 1) Cell lines: HT29, SW480, DLD-1, HCT116, and p53-null HCT116 cells, H1975, MDA-MD-231, U251, FaDu, CAL-27, PANC-1, Aspc-1, and MRC5 were obtained from the ATCC and cultured as recommended. Cells were regularly authenticated by bioluminescence, growth, and morphologic observation. The cells were routinely examined for Mycoplasma and all cell lines underwent STR authentication. • 2) Western blotting: After treatment, protein lysates were collected for Western blot analysis. 15 μg of protein was used for SDS-PAGE. After primary and secondary antibody incubations, the signal was detected by chemiluminescent detection kit, imaged by Syngene (Imgen Technologies). […] The cell viability was assessed by CellTiterGlo bioluminescent cell proliferation assay (Promega), following the manufacturer's protocol. Bioluminescence imaging was measured using the IVIS imager. Percentage of cell viability (mean±SEM) at each dose was calculated against the respective DMSO control. The IC50 values were determined from the sigmoidal dose-response curves using GraphPad Prims4. • 4) Caspase activity assay: Cells were seeded in 96-well plate (1×10^4 cells/well). […] The caspase 3/7 activity was assessed by Caspase-Glo® 3/7 Assay kit (Promega), following the manufacturer's protocol. Bioluminescence imaging was measured using the IVIS imager. […]

In the next experiment the test system is DLD1. Put plainly: CellTiterGlo cell viability assay, DLD1. It is filed as cell-based. The conditions noted are these: Homo sapiens, DLD-1; DLD1, colorectal cancer, p53 S241F, 72 hours. Here is the method: as §1
Experiment [1] relates to p53 target genes in HT29 cells. Put plainly: RNA-Seq gene profiling with IPA analysis. It is filed as cell-based, human. As to conditions: HT29, 1 μM for 24 hours. The method, then: Having confirmed that PG3-Oc induces apoptosis in multiple p53-expressing mutant cancer cell lines, whether this small molecule restored p53 pathway signaling was investigated in HT29 cells after treatment with 1 μM PG3-Oc for 24 hours. For this purpose, gene profiling was performed by RNA-Seq and bioinformatics analysis, such as IPA (Ingenuity pathway analysis), GSEA (gene set enrichment analysis) and GO (gene ontology) (See details at Methods and Materials). […] Key p53 target gene CDKN1A (p21) that negatively regulate cell cycle and other p53 target genes that regulate apoptosis such as, TNFRSF10B (DR5), BBC3 (PUMA), BIRC5 (Survivin), TP53INP1 (Teap) were identified in canonical p53 pathway analysis. […] To verify that the behavior of regulation of p53 target genes by PG3-Oc is similar to p53 protein, based on published data (Fischer, Oncogene, 2017, 36(28), 3943-3956), genes directly repressed (FIG. 89) and activated (FIG. 90) by the p53 transcription factor were selected. […] This implicates that PG3-Oc is able to restore the p53 pathway.

The next experiment deals with HCT116 p53−/− cells. The experiment can be described thus: qRT-PCR of p53 target gene mRNA, HCT116 p53−/−. The experiment is classed as cell-based, human. The conditions noted are these: 1 μM. The method, then:
as §1

SMILES strings stand for the structures.

Take `CCCCCCCCOC(=O)CCc1c(C)[nH]c(/C=C2\N=C(c3ccc[nH]3)C=C2OC)c1C` [PG3-Oc, Octyl (Z)-3-(5-((4′-methoxy-1H,5′H-[2,2′-bipyrrol]-5′-ylidene)methyl)-2,4-dimethyl-1H-pyrrol-3-yl)propanoate]: the “effect on c-Myc” value with c-Myc and PUMA is given as “potently downregulated c-Myc”. Besides, the IC50 came out at 100 nM in the experiment on U251 and 54 nM in the experiment with DLD1. The “PMAIP1 (Noxa) increase as compared to control” value in experiment [1] stood at 1.9 fold. The “change of DR5 mRNA” value in the experiment on HCT116 p53−/− cells was “no significant change”. For the same molecule, the “induction of p21 mRNA” value with HCT116 p53−/− cells (8 and 19 hours post-treatment) is given as “Over 3 fold”.
